Measured values from ChEMBL document CHEMBL1201862, “PubChem BioAssay data set” (2004).
Activity calls are given as the source filed them.

How the values were obtained:
[1] = biological target: T1, RNA-binding protein pos-1 (Caenorhabditis elegans, UniProt G5EF15); experiment: inhibitors of POS-1/mex-3 RNA binding, dose response, biochemical, fluorescence polarization (AID 1964);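 note: purified POS-1 fused to maltose binding protein made in E. coli; potency of compounds blocking POS-1 binding to fluorescent RNA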
T1 sequence (G5EF15 whole entry): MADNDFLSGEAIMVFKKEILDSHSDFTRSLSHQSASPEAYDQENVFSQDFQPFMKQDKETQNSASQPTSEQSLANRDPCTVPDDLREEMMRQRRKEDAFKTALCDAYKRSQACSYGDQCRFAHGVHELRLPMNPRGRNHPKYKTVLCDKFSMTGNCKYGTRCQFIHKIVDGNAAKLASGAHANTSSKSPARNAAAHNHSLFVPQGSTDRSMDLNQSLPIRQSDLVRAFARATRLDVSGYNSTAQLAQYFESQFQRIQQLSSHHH

[2] = biological target: T2, Zinc finger protein mex-5 (Caenorhabditis elegans, UniProt Q9XUB2); experiment: MEX-5/TCR-2 RNA interaction inhibitors, dose response, biochemical, C. elegans, fluorescence polarization (AID 1960)
T2 sequence (Q9XUB2 whole entry): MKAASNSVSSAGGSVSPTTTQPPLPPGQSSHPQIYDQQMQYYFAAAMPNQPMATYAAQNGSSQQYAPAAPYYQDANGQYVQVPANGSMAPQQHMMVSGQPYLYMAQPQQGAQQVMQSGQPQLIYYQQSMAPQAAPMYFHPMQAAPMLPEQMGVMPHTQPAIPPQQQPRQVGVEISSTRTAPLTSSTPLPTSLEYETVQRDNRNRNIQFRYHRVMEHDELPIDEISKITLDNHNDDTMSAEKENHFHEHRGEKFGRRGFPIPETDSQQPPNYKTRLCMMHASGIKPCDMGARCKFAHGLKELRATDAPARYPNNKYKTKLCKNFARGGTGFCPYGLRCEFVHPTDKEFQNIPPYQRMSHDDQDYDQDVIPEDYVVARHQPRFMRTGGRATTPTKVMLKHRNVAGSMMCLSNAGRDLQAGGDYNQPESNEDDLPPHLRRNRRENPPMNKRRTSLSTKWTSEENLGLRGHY

CHO-K1 = experiment: (§1) Counterscreen for antagonists of the orexin 1 receptor (OX1R; HCRTR1): Homogeneous time resolved fluorescence (HTRF)-based cell-based dose response assay to identify antagonists of the parental CHO-K1 cell line. [Related pubchem assays (depositor defined):AID434989, AID435008, AID463079, AID485270, AID492963, AID492964, AID492965, AID493232, AID504699, AID504701]; assay type: functional; details: Cricetulus griseus
[3] = as §1, with “Fluorescence-based” for “Homogeneous time resolved fluorescence (HTRF)-based”, “cell-based high throughput” for “cell-based”, “CHO” for “CHO-K1”; assay type: functional
[4] = biological target: T3, Orexin/Hypocretin receptor type 1 (Homo sapiens, UniProt O43613); experiment: Homogeneous Time Resolved Fluorescence (HTRF)-based cell-based high throughput dose response assay for antagonists of the orexin 1 receptor (OX1R; HCRTR1). [Related pubchem assays (depositor defined):AID434989, AID435008, AID463079, AID485270, AID492963, AID492964, AID492965, AID493232, AID504717, AID504718]; assay type: functional
[5] = biological target: T3, Orexin/Hypocretin receptor type 1; experiment: Fluorescence-based cell-based high throughput dose response assay for antagonists of the orexin 1 receptor (OX1R; HCRTR1). [Related pubchem assays (depositor defined):AID434989, AID435008, AID463079, AID485270, AID492963, AID492964, AID492965, AID493232, AID504717, AID504718]; assay type: functional
Orexin receptor type 2 [6] = biological target: T4, Orexin receptor type 2 (Homo sapiens, UniProt O43614); experiment: Counterscreen assay for antagonists of the orexin 1 receptor (OX1R; HCRTR1): Fluorescence-based cell-based dose response assay for antagonists of the orexin 2 receptor (OX2R; HCRTR2), run by assay provider.; assay type: functional
Orexin receptor type 2 [7] = biological target: T4, Orexin receptor type 2; experiment: Counterscreen assay for antagonists of the orexin 1 receptor (OX1R; HCRTR1): Homogeneous Time Resolved Fluorescence (HTRF)-based cell-based dose response assay for antagonists of the orexin 2 receptor (OX2R; HCRTR2), run by assay provider.; assay type: functional
[8] = biological target: Sphingosine 1-phosphate receptor 2 (Homo sapiens, UniProt O95136); experiment: Late-stage fluorescence-based dose-response cell-based counterscreen assay to identify agonists of the Sphingosine 1-Phosphate Receptor 3 (S1P3): Sphingosine 1-Phosphate Receptor 2 (S1P2) agonist assay.; assay type: functional
[9] = biological target: T5, Sphingosine 1-phosphate receptor 4 (Homo sapiens, UniProt O95977); experiment: Late-stage fluorescence-based dose-response cell-based counterscreen assay to identify agonists of the Sphingosine 1-Phosphate Receptor 3 (S1P3): Sphingosine 1-Phosphate Receptor 4 (S1P4) agonist assay.; assay type: functional
T5 sequence (O95977 whole entry): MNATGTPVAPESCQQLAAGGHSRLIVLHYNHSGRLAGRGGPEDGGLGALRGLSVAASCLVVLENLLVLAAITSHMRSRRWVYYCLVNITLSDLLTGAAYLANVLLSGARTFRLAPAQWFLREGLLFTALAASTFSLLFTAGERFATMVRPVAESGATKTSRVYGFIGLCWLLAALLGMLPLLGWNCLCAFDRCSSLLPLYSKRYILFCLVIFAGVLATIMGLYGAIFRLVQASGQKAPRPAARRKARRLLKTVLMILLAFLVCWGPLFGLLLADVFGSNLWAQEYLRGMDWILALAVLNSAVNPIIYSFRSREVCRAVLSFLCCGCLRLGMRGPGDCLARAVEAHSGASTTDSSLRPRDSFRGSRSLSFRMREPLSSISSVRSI

T3 sequence (O43613 whole entry): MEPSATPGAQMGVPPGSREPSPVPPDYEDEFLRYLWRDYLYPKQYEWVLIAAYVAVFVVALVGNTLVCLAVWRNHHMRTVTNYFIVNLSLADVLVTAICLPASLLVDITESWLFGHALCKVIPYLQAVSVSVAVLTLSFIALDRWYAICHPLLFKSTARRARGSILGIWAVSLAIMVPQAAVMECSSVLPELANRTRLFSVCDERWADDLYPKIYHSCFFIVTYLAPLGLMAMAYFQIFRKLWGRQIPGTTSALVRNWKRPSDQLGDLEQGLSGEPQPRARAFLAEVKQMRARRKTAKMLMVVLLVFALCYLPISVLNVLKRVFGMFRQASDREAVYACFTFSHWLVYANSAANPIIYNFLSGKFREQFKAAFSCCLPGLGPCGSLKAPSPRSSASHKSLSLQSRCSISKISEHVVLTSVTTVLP
T4 sequence (O43614 whole entry): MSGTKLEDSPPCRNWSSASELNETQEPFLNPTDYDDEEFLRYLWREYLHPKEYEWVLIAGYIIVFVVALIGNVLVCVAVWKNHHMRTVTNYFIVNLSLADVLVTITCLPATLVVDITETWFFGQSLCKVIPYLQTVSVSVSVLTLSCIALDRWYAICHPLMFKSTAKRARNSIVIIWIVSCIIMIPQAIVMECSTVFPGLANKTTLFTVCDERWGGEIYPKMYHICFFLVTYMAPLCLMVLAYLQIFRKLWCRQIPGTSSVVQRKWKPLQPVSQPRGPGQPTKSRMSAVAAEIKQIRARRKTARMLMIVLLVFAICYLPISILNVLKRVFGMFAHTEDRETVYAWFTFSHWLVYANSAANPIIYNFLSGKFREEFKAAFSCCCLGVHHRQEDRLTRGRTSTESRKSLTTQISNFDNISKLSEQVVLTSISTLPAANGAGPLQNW
Sphingosine 1-phosphate receptor 2, sequence (O95136 whole entry): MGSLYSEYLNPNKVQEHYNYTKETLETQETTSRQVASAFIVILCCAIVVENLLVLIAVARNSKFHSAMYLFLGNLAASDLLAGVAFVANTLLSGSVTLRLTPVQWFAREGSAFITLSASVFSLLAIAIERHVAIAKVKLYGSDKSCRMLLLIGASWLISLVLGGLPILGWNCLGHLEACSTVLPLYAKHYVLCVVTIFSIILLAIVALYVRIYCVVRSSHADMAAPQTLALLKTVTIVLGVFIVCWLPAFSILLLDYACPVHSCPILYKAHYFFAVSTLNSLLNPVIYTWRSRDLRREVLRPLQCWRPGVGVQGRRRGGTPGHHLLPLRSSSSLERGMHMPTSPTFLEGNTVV

| Structure (SMILES) | EC50 [1] | EC50 [2] | IC50 (CHO-K1) | IC50 [3] | IC50 [4] | IC50 [5] | IC50 (Orexin receptor type 2 [6]) | IC50 (Orexin receptor type 2 [7]) | EC50 [8] | EC50 [9] |
| --- | --- | --- | --- | --- | --- | --- | --- | --- | --- | --- |
| Nc1c(C(=O)c2ccc(Br)s2)oc2ccccc12 | 71.8 µM (active) | 106 µM (active) | > 66.2 µM (inactive) | > 49.8 µM (inactive) | 6.69 µM (active) | 15.7 µM (inactive) | 30.7 µM (inactive) | > 50 µM (inactive) |  |  |
| CC1CCCCC1N(C(=O)c1cc(C2CC2)on1)C1CCOCC1 (stereo not given) |  |  |  |  |  |  |  |  | > 50 µM (inactive) | > 50 µM (inactive) |
